The record followed here is PubChem BioAssay (NCI).

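Interpolation was linear, between the two tested concentrations surrounding the appropriate level; five concentrations were tested over 48 hours in 96-well plates. GI50 is the concentration that inhibits growth by half. Definition used: TGI = concentration required for complete inhibition of growth.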 Where only a bound is given, the exact number is not on record here.

Test in all cases: inhibition of tumour cell growth, NCI panel, 48 h
Experiment [1] has as its system UACC-62 melanoma.
Experiment [2] has as its system MALME-3M melanoma.
The subject of experiment [3] is IGROV1 ovarian.
Experiment [4] concerns SNB-75 CNS.
The subject of experiment [5] is UO-31 renal.
For experiment [6], the system named is M14 melanoma.
For experiment [7], the system named is LOX IMVI melanoma.
Experiment [8] has as its system MCF7 breast.
For experiment [9], the system named is HS 578T breast.
The subject of experiment [10] is BT-549 breast.

For `C[C@]12CCC[C@H](O)[C@H]1C[C@H](CO)CC2`, the TGI in [1], in experiment [2], in experiment [3], in experiment [4], in experiment [5] and in experiment [6] was above 100 µM in each case. In experiment [7], this compound returned a TGI above 100 µM.

Regarding `CC(=O)[CH-]C(=O)c1ccccc1.CC(=O)[CH-]C(=O)c1ccccc1.CC[C@H](/C=C/C(C)[C@H]1CCC2[C@@H]3CC=C4C[C@@H]([O-])CC[C@]4(C)C3CC[C@@]21C)C(C)C.CC[O-].[Ti+4]` (some centres undefined), the GI50 was above 100 µM in experiment [1]; above 100 µM in experiment [2]; above 100 µM in experiment [3]; 22.4 µM in [4]; above 100 µM in experiment [5]; above 100 µM in experiment [6]. In experiment [7], the GI50 was above 100 µM. In addition, the TGI in experiment [1], in [2], in [3], in experiment [4], in experiment [5] and in [6] was above 100 µM throughout. Further, the TGI in experiment [7] was above 100 µM.

For `C/C(=N\NS(=O)(=O)c1ccc(C)cc1)c1cc2ccccc2n1C`, the TGI in experiment [1], in [2], in [3], in [4], in experiment [5] and in [6] was above 100 µM in each case. In addition, in [7], the TGI is above 100 µM.

As to `NC1=NN(c2ccccc2)C(=O)C1/C(=N\NC(=O)c1cc2ccccc2cc1O)C(=O)Nc1cccc(C(F)(F)F)c1` (centres undefined), the TGI in experiment [1], in [2], in [3], in [4], in experiment [5] and in experiment [6] was above 100 µM each time. The TGI in [7] was above 100 µM.

Take `O=C(/C=C/c1ccccc1Cl)c1cccc2ccccc12`: the TGI in experiment [1] worked out at 28.6 µM; in experiment [2], 30.1 µM; in [3] it was 29.6 µM; in experiment [4], 18.3 µM; in experiment [5], 21.3 µM; in [6] it was 30.5 µM. Besides, the TGI in experiment [7] is 24.3 µM.

`COc1ccc(-c2nc(Nc3ccc(-c4nc5ccccc5[nH]4)cc3)nc(N3CCOCC3)n2)cc1`: the GI50 is 2.05 µM in experiment [2]; 1.8 µM in experiment [4]; 2.16 µM in experiment [5]; 1.94 µM in experiment [6]; 2.59 µM in experiment [8]; 1.76 µM in [9]. For the same compound, the TGI was 3.95 µM in experiment [2]; 10.5 µM in experiment [4]; 5.64 µM in experiment [5]; 4.03 µM in experiment [6]; above 100 µM in [8]; 6.96 µM in experiment [9].

`COC(=O)C1=CC2CC1C(S(=O)(=O)c1ccccc1)C2S(=O)(=O)c1ccccc1` (centres undefined): the TGI was determined as 67.9 µM in experiment [1]; 23.5 µM in [2]; 98.9 µM in [3]; 27.7 µM in experiment [5]; 25.5 µM in experiment [6]; 27.1 µM in experiment [7].

With `NC(=O)c1ncn(CCN2CCN(C(=O)NCCCCCCNC(=O)N3CCN(CCn4cnc(C(N)=O)c4N)CC3)CC2)c1N`, the TGI in experiment [1], in experiment [2], in experiment [3], in [4], in experiment [5] and in [6] was above 100 µM in each case. The compound further came in with a TGI in [7] above 100 µM.

For the compound `COc1ccc2c(c1)[n+]([O-])c(-c1ccc(Br)cc1)c(N)[n+]2[O-]`, the TGI is 60.1 µM in [2], above 100 µM in experiment [3], above 100 µM in [4] and above 100 µM in [5].

Take `Cn1cc(-c2csc(-c3cn(CCCCN4CCCCC4)c4ccc(F)cc34)n2)c2cccnc21`: in experiment [10], the GI50 was 1.67 µM and the TGI was 3.13 µM. Also, in experiment [9], the GI50 was 12.4 µM and the TGI worked out at 53.8 µM.

Turning to `CC1=NN2C(c3ccc(C)cc3)=CSC2=NC(C)(C)C1`, the TGI in [1], in experiment [2], in [3], in [4], in experiment [5] and in experiment [6] was above 100 µM throughout. The compound also yielded a TGI in experiment [7] above 100 µM.

Turning to `O=C(CC1(O)C(=O)Nc2ccccc21)c1ccc(F)cc1` (centres undefined), the TGI in [1], in [2], in [3], in experiment [4], in [5] and in experiment [6] was above 100 µM throughout. Moreover, the TGI in experiment [7] was above 100 µM.

Regarding `CC(=O)[CH-]C(=O)c1ccccc1.CC(=O)[CH-]C(=O)c1ccccc1.CC1(C)OCC(C2OC3OC(C)(C)OC3C2[O-])O1.CC1(C)OCC(C2OC3OC(C)(C)OC3C2[O-])O1.[Ti+4]` (centres undefined), the GI50 in [1] is 16.9 µM; in experiment [2] it was 10.5 µM; in experiment [3] it was 21.6 µM; in [4], 11 µM; in experiment [6], 16.1 µM; in experiment [7], 13.7 µM. The TGI turned out to be 39.6 µM in experiment [1]; 28.5 µM in [2]; 48.8 µM in experiment [3]; 28.5 µM in [4]; 37.6 µM in experiment [6]; 34.2 µM in [7].

On to `Cc1cc(Cl)ccc1NC(=O)CCCC(=O)C1CCC/C1=N\NC(=O)CC#N` (centres undefined), for which the TGI in [1], in experiment [2], in experiment [3], in [4], in experiment [5] and in experiment [6] was above 100 µM in each case.

For `COC(=O)C(CC(C)=O)CS(=O)(=O)CC(=O)C(=O)Nc1cccc([N+](=O)[O-])c1` (centres undefined), the TGI in experiment [1], in experiment [2], in [3], in experiment [4], in experiment [5] and in experiment [6] was above 100 µM each time. In [7], this compound gave a TGI above 100 µM.
